Several values for one entry are separate records, joined by “and”; a condition that tells them apart may be missing. Identical values can stand only once. Like-named read-outs stand apart in the source and are kept apart here. A value given as a limit tells only on which side of the number the result lay.

For data set [1], the system named is M. tuberculosis H37Rv. Description: microbe, parasite or virus in culture. It counts as cell-based. The note with it: Mycobacterium tuberculosis.
Data set [2] deals with M. tuberculosis H37Ra. Put plainly: microbe, parasite or virus in culture. It counts as cell-based, Mycobacterium tuberculosis.
A short description of data set [3]: Cytotoxicity, resazurin cell viability assay. To be noted: human, SH-SY5Y neuroblastoma cells; SH-SY5Y cells, 48 h; mean ± SEM. The data set is classed as cell-based, human. The protocol:
(§1) Cell viability was assayed by using Resazurin (SERVA Electrophoresis GmbH, Heidelberg, Germany). This cell-permeable dye is reduced by aerobic respiration of metabolically active cells to resorufin, whose fluorescence is proportional to the number of live cells. The stock solution of resazurin sodium salt (440 μM, 10×) was resuspended in Phosphate Buffered Saline (PBS) and stored at −20 °C. Working solution (44 μM) was prepared on the same day of each assay by diluting resazurin stock solution in a standard culture medium. The human neuroblastoma cell line SH-SY5Y was used to test the cytotoxicity of five selected compounds (1h, and 1k–n). The cells were maintained in Dulbecco’s modified Eagle’s medium (DMEM; Gibco, Life Technologies Inc., Frederick, MD, USA) supplemented with 10% (v/v) fetal bovine serum (FBS) and Antibiotic Antimycotic Solution (100 U penicillin, 100 μg/mL streptomycin and 0.25 μg/mL amphotericin B; Sigma-Aldrich, St. Louis, MO, USA) at 37 °C in a humidified incubator with a 5% CO2/95% air atmosphere.
(§2) In the cytotoxicity tests, SH-SY5Y cells were seeded at a density of 5 × 10^3 cells/well in a 96-well plate and grown for another 24 h. Cells were then treated in triplicate with serial dilutions (100 μM, 50 μM, 25 μM, 12.5 μM, 6.25 μM, 3.125 μM) of selected compounds. After 48 h, the culture medium in each well was replaced with 100 μL of Resazurin working solution (44 μM). The fluorescent signal of the resorufin was monitored with Excitation λ = 530 nm and Emission λ = 590 nm by using an Envision 2104 Multi-label Microplate Reader (Perkin Elmer, Boston, MA, USA). Measurements were performed at time 0 and after 1 h of incubation. The percentage of viability was calculated after subtraction of the background (obtained by killing the cells), on the basis of the ratio between the fluorescence values of the cells incubated with a compound and the fluorescence values of cells incubated with the solvent (1% DMSO). The viability of cells incubated with 1% DMSO was considered to be equivalent to 100%. The statistical analysis was carried out with GraphPad Prism 6 (GraphPad Software, Inc., La Jolla, CA, USA) software using an unpaired t-test, and a p-value < 0.05 was considered statistically significant. Cytotoxicity (CC50) was determined from dose-response curves analyzed by using GraphPad Prism software.
(In general: Alamar Blue is a resazurin reagent that responds to reducing activity.)

The test system of data set [4] is SH-SY5Y cells. Put plainly: Cytotoxicity, resazurin cell viability assay. The data set is classed as cell-based, human. The note with it: for Viability (%) vs DMSO: SH-SY5Y, 48 h, average ± SEM; for Cytotoxicity (in words): SH-SY5Y cells, tested concentrations up to 100 μM. On the procedure: as §1, §2
Setting [5] is: Mycobacterium tuberculosis, H37RA.

In the case of `NNC(=O)c1ccncc1` [INH, Isoniazid, reference compound], the MIC in data set [1] is 0.25 µg/mL; in data set [1] ([…], value in brackets), 1.8 µM; in data set [2] (setting [5]) it was 0.25 µg/mL and 1.8 µM.
For orientation: CC50 means the concentration at which the toxic effect on the cells reaches its halfway point. Broadly, the melting point is the temperature, or range, at which the solid turns liquid. For `O=C(N/N=C\c1ccncc1)c1nnc(-c2ccccc2)o1` [1m, (Z)-5-phenyl-N’-(pyridin-4-ylmethylen)-1,3,4-oxadiazol-2-carbohydrazide], the melting point was in the range of 243 to 245 °C. The molecule also displayed a CC50 at 48 h in data set [3] of 128 ± 16 µM. The “Viability (%) vs DMSO” value in data set [4] (3.125 µM) is reported as 100 ± 14%. Moreover, the “Viability (%) vs DMSO” value in data set [4] (6.25 µM) was found to be 100 ± 14%. For the same molecule, in data set [4] (12.5 µM), the “Viability (%) vs DMSO” value turned out to be 98 ± 16%. Further, in data set [4] (25 µM), the “Viability (%) vs DMSO” value was found to be 96 ± 14%. Besides, the “Viability (%) vs DMSO” value in data set [4] (50 µM) is recorded as 87 ± 11%. Also, the “Viability (%) vs DMSO” value in data set [4] (100 µM) amounted to 61 ± 9%. In data set [1], the MIC is more than 64 µg/mL. Besides, the MIC in data set [2] (setting [5]) is 8 µg/mL and 27.4 µM.
In the case of `CO[C@H]1/C=C/O[C@@]2(C)Oc3c(C)c(O)c4c(O)c(c(/C=N/N5CCN(C)CC5)c(O)c4c3C2=O)NC(=O)/C(C)=C\C=C\[C@H](C)[C@H](O)[C@@H](C)[C@@H](O)[C@@H](C)[C@H](OC(C)=O)[C@@H]1C` [RIF, reference compound], the MIC came out at 0.5 µg/mL in data set [1] and 0.6 µM in data set [1] ([…], value in brackets).
The molecule `O=C(N/N=C\c1ccc[nH]1)c1nnc(-c2ccccc2)o1` [1k, (Z)-N’-((1H-pyrrol-2-yl)methylen)-5-phenyl-1,3,4-oxadiazol-2-carbohydrazide] had a melting point of 185 to 187 °C. Moreover, in data set [3], half-maximal cytotoxicity (CC50 at 48 h) was put at 50 ± 6 µM. In addition, in data set [4] (3.125 µM), the “Viability (%) vs DMSO” value came to 100 ± 13%. In addition, in data set [4] (6.25 µM), the “Viability (%) vs DMSO” value is 100 ± 13%. For the same molecule, in data set [4] (12.5 µM), the “Viability (%) vs DMSO” value was 101 ± 14%. Besides, in data set [4] (25 µM), the “Viability (%) vs DMSO” value is 81 ± 12%. Further, in data set [4] (50 µM), the “Viability (%) vs DMSO” value was determined as 49 ± 7%. Besides, the “Viability (%) vs DMSO” value in data set [4] (100 µM) is 37 ± 6%. The same molecule yielded an MIC in data set [1] of 8 µg/mL. Also, in data set [1] ([…], value in brackets), the MIC is 28.3 µM. For the same molecule, the MIC in data set [2] (setting [5]) was 8 µg/mL and 28.3 µM.
Regarding `O=C(N/N=C\c1ccc(Cl)cc1)c1nnc(-c2ccncc2)o1` [1b, (Z)-N’-(4-chlorobenzyliden)-5-(pyridin-4-yl)-1,3,4-oxadiazol-2-carbohydrazide], the results for the MIC in data set [1], in data set [2] and in data set [2] (setting [5]) were more than 64 µg/mL, >64 (-) μg/mL and more than 64 µg/mL, respectively.
In turn, `O=C(N/N=C\c1ccco1)c1nnc(-c2ccccc2)o1` [1n, (Z)-N’-(furan-2-ylmethylen)-5-phenyl-1,3,4-oxadiazol-2-carbohydrazide] came in with a melting point of 221 to 223 °C. In data set [3], this molecule yielded a CC50 at 48 h of more than 100 µM. In addition, in data set [4], the “Cytotoxicity (in words)” value is reported as “no cytotoxicity at tested concentrations”. Also, in data set [4] (3.125 µM), the “Viability (%) vs DMSO” value is listed as 100 ± 11%. The “Viability (%) vs DMSO” value in data set [4] (6.25 µM) worked out at 100 ± 11%. Further, the “Viability (%) vs DMSO” value in data set [4] (12.5 µM) was found to be 99 ± 15%. The “Viability (%) vs DMSO” value in data set [4] (25 µM) is given as 100 ± 12%. For the same molecule, the “Viability (%) vs DMSO” value in data set [4] (50 µM) stood at 100 ± 13%. The “Viability (%) vs DMSO” value in data set [4] (100 µM) turned out to be 97 ± 11%. Moreover, the MIC in data set [1] was 16 µg/mL. The MIC in data set [1] ([…], value in brackets) stood at 56.6 µM. Further, the MIC in data set [2] (setting [5]) is 8 µg/mL and 28.3 µM.
On to `O=C(N/N=C\c1ccc[nH]1)c1nnc(-c2ccncc2)o1` [1d, (Z)-N’-((1H-pyrrol-2-yl)methylen)-5-(pyridin-4-yl)-1,3,4-oxadiazol-2-carbohydrazide], for which the MIC in data set [1] was more than 64 µg/mL; in data set [2] (setting [5]), 64 µg/mL and 226 µM.
Molecule `O=C(N/N=C\c1ccccn1)c1nnc(-c2ccccc2)o1` [1l, (Z)-5-phenyl-N’-(pyridin-2-ylmethylen)-1,3,4-oxadiazol-2-carbohydrazide] came in with a melting point of 242 to 243 °C. Further, the CC50 at 48 h in data set [3] turned out to be 100 ± 12 µM. In addition, in data set [4] (3.125 µM), the “Viability (%) vs DMSO” value came out at 100 ± 12%. Moreover, the “Viability (%) vs DMSO” value in data set [4] (6.25 µM) is given as 100 ± 12%. Also, the “Viability (%) vs DMSO” value in data set [4] (12.5 µM) amounted to 98 ± 13%. Besides, the “Viability (%) vs DMSO” value in data set [4] (25 µM) turned out to be 93 ± 13%. In addition, the “Viability (%) vs DMSO” value in data set [4] (50 µM) is on record as 70 ± 10%. Further, the “Viability (%) vs DMSO” value in data set [4] (100 µM) is 49 ± 7%. In data set [1], this molecule came in with an MIC of 8 µg/mL. In addition, in data set [1] ([…], value in brackets), the MIC is 27.1 µM. The MIC in data set [2] (setting [5]) was 8 µg/mL and 27.4 µM.
In the case of `O=C(N/N=C\c1ccncc1)c1nnc(-c2ccncc2)o1` [1f, (Z)-5-(pyridin-4-yl)-N’-(pyridin-4-ylmethylen)-1,3,4-oxadiazol-2-carbohydrazide], the MIC in data set [1] was more than 64 µg/mL; in data set [2] (setting [5]) it was 64 µg/mL and 217 µM.
In the case of `Cc1ccc(/C=N\NC(=O)c2nnc(-c3ccncc3)o2)cc1` [1c, (Z)-N’-(4-methylbenzyliden)-5-(pyridin-4-yl)-1,3,4-oxadiazol-2-carbohydrazide], the MIC in data set [1] is more than 64 µg/mL; in data set [2] (setting [5]), 64 µg/mL and 195 µM.
In turn, `O=C(N/N=C\c1ccc(Cl)cc1)c1nnc(-c2ccccc2)o1` [1i, (Z)-N’-(4-chlorobenzyliden)-5-phenyl-1,3,4-oxadiazol-2-carbohydrazide] came in with a melting point of 243 to 245 °C. Also, the MIC in data set [1] was more than 64 µg/mL. Also, the MIC in data set [2] (setting [5]) is 16 µg/mL and 48.9 µM.
Turning to `O=C(N/N=C\c1ccccc1)c1nnc(-c2ccncc2)o1` [1a, (Z)-N’-benzyliden-5-(pyridin-4-yl)-1,3,4-oxadiazol-2-carbohydrazide], the melting point lay within 207 to 209 °C. Further, in data set [1], the MIC is more than 64 µg/mL. For the same molecule, in data set [2] (setting [5]), the MIC was 64 µg/mL and 218 µM.
As for `Cc1ccc(C=NNC(=O)c2nnc(-c3ccccc3)o2)cc1` (mixture of isomers) [1j, (E/Z)-N’-(4-methylbenzyliden)-5-phenyl-1,3,4-oxadiazol-2-carbohydrazide], the melting point is 200 to 202 °C. Moreover, the MIC in data set [1] is more than 64 µg/mL. In data set [2] (setting [5]), the MIC is 16 µg/mL and 52.2 µM.
In the case of `O=C(N/N=C\c1ccco1)c1nnc(-c2ccncc2)o1` [1g, (Z)-N’-(furan-2-ylmethylen)-5-(pyridin-4-yl)-1,3,4-oxadiazol-2-carbohydrazide], the melting point lay within 236 to 242 °C. The molecule also yielded an MIC in data set [1] of more than 64 µg/mL. Further, the MIC in data set [2] (setting [5]) is 64 µg/mL and 226 µM.
`O=C(N/N=C\c1ccccn1)c1nnc(-c2ccncc2)o1` [1e, (Z)-N’-(pyridin-2-ylmethylen)-5-(pyridin-4-yl)-1,3,4-oxadiazol-2-carbohydrazide] registered a melting point of 255 to 259 °C. In data set [1], this molecule showed an MIC of 16 µg/mL. In data set [1] ([…], value in brackets), this molecule displayed an MIC of 54 µM. Further, in data set [2] (setting [5]), the MIC was 32 µg/mL and 108 µM.
Regarding `O=C(N/N=C\c1ccccc1)c1nnc(-c2ccccc2)o1` [1h, (Z)-N’-benzyliden-5-phenyl-1,3,4-oxadiazol-2-carbohydrazide], the melting point lay within 194 to 196 °C. For the same molecule, the CC50 at 48 h in data set [3] was more than 100 µM. In data set [4], the “Cytotoxicity (in words)” value is reported as “no cytotoxicity at tested concentrations”. In data set [4] (3.125 µM), the “Viability (%) vs DMSO” value is 100 ± 13%. The “Viability (%) vs DMSO” value in data set [4] (6.25 µM) came to 99 ± 13%. Further, the “Viability (%) vs DMSO” value in data set [4] (12.5 µM) is given as 99 ± 11%. For the same molecule, the “Viability (%) vs DMSO” value in data set [4] (25 µM) was found to be 99 ± 15%. For the same molecule, the “Viability (%) vs DMSO” value in data set [4] (50 µM) is 100 ± 14%. Further, the “Viability (%) vs DMSO” value in data set [4] (100 µM) was determined as 97 ± 12%. The molecule further gave an MIC in data set [1] of more than 64 µg/mL. The MIC in data set [2] (setting [5]) is 8 µg/mL and 27.4 µM.

For the origin of these results see PMC9735621, “Synthesis, Biological Evaluation and Computational Studies of New Hydrazide Derivatives Containing 1,3,4-Oxadiazole as Antitubercular Agents” (International Journal of Molecular Sciences, 2022).
